Source: patent publication US20210355115A1, “ISOXAZOLE CARBOXAMIDE COMPOUNDS AND USES THEREOF” (Novartis AG, priority 2018, published 2021)

Columns and labels:
Atoh1 = Atoh1 induction assay in mouse cerebellar neural precursor cells (Atoh1-GFP reporter assay); format: cell-based; settings: maximum fold difference over DMSO control (=1), cerebellar NPCs from Atoh1-GFP mice, 10 doses 50 μM to 200 nM, 72 hours treatment, read-out: Fold Difference (ratio of Atoh1-GFP average intensity_FC to DMSO_Max)
Protocol: Atoh1 induction assay was conducted with in vitro cultured cerebellar neural precursor cells isolated from neonatal transgenic Atoh1-GFP mice. Atoh1 expression is mainly regulated by the enhancer, and the nuclear GFP was driven by the cloned enhancer sequence at 3′ of Atoh1 which had high conservation among mammalians So Atoh1 induction could be reflected by GFP activation in cerebellar neural precursor cells (Helms et al., Development 2000; 127: 1185-1196; Lumpkin et al., Gene Expression Patterns 2003; 3: 389-395). Postnatal 3 days pups were dissected for cerebellum tissue isolation. The cerebellum tissue was cut into small pieces, and dissociated with 0.05% Trypsin for about 10 minutes at 37° C., and then filtered with a 70 uM cell strainer. The cells were cultured as neuropsheres for the first 2 days in ultra-low attachment dish/well-plate with DMEM/F12+1% N2 &2% B27 with 1% P/S, 20 ng/ml rhFGF2 and 20 ng/ml rhEGF (R&D Systems). Then the spheres were plated to the matrigel (1:30 diluted in DMEM/F12)-coated tissue culture dish for monolayer culture. After 4.5-5.5 days culture in vitro (DIV), cells were dissociated with 0.05% trypsin into single cells, and frozen after cell number calculation.
The cerebellar neural precursor cells (NPCs) were re-thawed from stock and cultured for another 2 days before used for Atoh1 induction assay. On the first day of assay, NPCs were seeded into matrigel-coated 384 well plates (Black view-plate, PE) at 2500 cells/well. After over-night culture, the NPCs were treated with representative compounds of the present disclosure with 1:2 serial dilutions for 10 doses, from 50 μM to 200 nM, with DMSO as negative control. After 72 hours treatment without medium change, the cells were fixed with 4% formalin for staining Assay plates were stained with GFP antibody (Abcam, #13970, 1:1000) to amplify endogenous GFP signal and then read by Cellomics. […] Table 1 Atoh1 activation by treatment of Compounds of the present disclosure (Atoh1-GFP reporter assay in cerebellar NPCs)

[1] = test system: mouse cochlea explants with hair cell damage; assay: Ex vivo hair cell induction assay using 6-day-postnatal mouse cochlea explants with hair cell damage; format: cell-based; settings: 10 μM; neomycin-damaged P6 Atoh1-GFP mouse cochlea explants; 8 days treatment; Mean ± SD; DMSO control 0
Protocol: Ex Vivo Hair Cell Induction Assay Using 6-Day-Postnatal Mouse Cochlea Explants with Hair Cell Damage
P6, postnatal 6 days, Atoh1-GFP mice, the same mouse strain used for Atoh1 induction assay described before, were used in this assay. The otic capsule was exposed and the cochleae were micro-dissected. The basilar membrane was separated from the organ of Corti and in vitro cultured in serum free medium (culture medium: DMEM/F12+1% N2+2% B27+5 μg/ml ampicillin) at 37° C. under a standard gas atmosphere of humidified air/5% CO2. Inner ear hair cells were damaged by 1 mM Neomycin treatment for […] After the neomycin treatment, explants were cultured in blank culture medium for 7 days before the treatment of selected compounds.
For compound administration, the cochlea explants were treated with 3 to 10 μM compound of the present disclosure, with DMSO as the negative control for 8 days with once compound/medium change. After 8 days treatment, the tested compound was removed. The explants were cultured in blank medium for additional 4 days. The cochlea explant cultures then were fixed with 4% w/v formalin and processed for Myo7a immunofluorescence (Myo7a is a specific marker for sensory hair cell) using the rabbit anti-Myo7a antibody (Protus Biosci #25-6790, 1:250 diluted in PBS containing 3% BSA). Rhodamine labeled Goat-anti-rabbit IgG (Molecular Prob. #R6394, 1:1000 diluted in PBS containing 3% BSA) was used as the secondary antibody to visualize the Myo7a positive cells. The images were collected and analyzed using the EVOS image system (Thermo-Fisher Scientific). […] The hair cell identity of the ectopically formed cells was confirmed by staining the cells with multiple hair cell markers.
The efficacy of hair cells induction in this assay is represented by the responsive length percentage of Atoh1 and Myo7a double positive cells in the damaged whole explants after compound treatment. The responsive length percentage was calculated according to the equation of ((the explant length with Atoh1 and Myo7a double positive cells/the full length of cochlea explant)*100%). Note the value of DMSO control is 0% due to total damage of hair cells, and any responsive length percentage more than 20% is considered as significant hair cell induction.

Structure (SMILES)	maximal fold induction (Atoh1)	Atoh1-GFP/Myo7a cell numbers in 25%-50% length from Apex [1]	Response ratio (Response length/full length %) [1] [%]
NC(=O)C1CN(CCCCCNC(=O)c2cc(-c3cccs3)on2)CC1O (single isomer, unassigned) [33 peak 1]	34.8	19.4 ± 2.7	62.1 ± 11.8
NC(=O)[C@@H]1CN(CCCCCNC(=O)c2cc(-c3cccs3)on2)CC[C@H]1O [35 trans]	24.8	14.2 ± 1.8	63.9 ± 5.8
NC(=O)CN1CCN(CCCCCNC(=O)c2cc(-c3cccs3)on2)CC1 [Example 18, N-(5-(4-(2-amino-2-oxoethyl)piperazin-1-yl)pentyl)-5-(thiophen-2-yl)isoxazole-3-carboxamide]	20.4	16.1 ± 3.0	59.4 ± 5.3
NC(=O)[C@H](O)CN1CCN(CCCCCNC(=O)c2cc(-c3cccs3)on2)CC1 [Example 37 R, (R)—N-(5-(4-(3-amino-2-hydroxy-3-oxopropyl)piperazin-1-yl)pentyl)-5-(thiophen-2-yl)isoxazole-3-carboxamide]	–	13.6 ± 4.0	42.2 ± 7.7
NC(=O)[C@@H](O)CN1CCN(CCCCCNC(=O)c2cc(-c3cccs3)on2)CC1 [Example 37 S, (S)—N-(5-(4-(3-amino-2-hydroxy-3-oxopropyl)piperazin-1-yl)pentyl)-5-(thiophen-2-yl)isoxazole-3-carboxamide]	–	11.1 ± 3.0	50.1 ± 16.8
NC(=O)C(O)CN1CCN(CCCCCNC(=O)c2cc(-c3cccs3)on2)CC1 (stereo not shown) [Example 37, N-(5-(4-(3-amino-2-hydroxy-3-oxopropyl)piperazin-1-yl)pentyl)-5-(thiophen-2-yl)isoxazole-3-carboxamide]	27.6	16.3 ± 4.0	56.9 ± 8.8
